Our source for the TGI and GI50 values is PubChem BioAssay (NCI).

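These data come from cells grown in 96-well plates and exposed to compound for 48 hours at five concentrations. GI50 = concentration required for 50% inhibition of growth. TGI marks complete inhibition of growth.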

Test in all cases: DTP human tumour cell line panel, 48 h
Assay [1] has as its system COLO 205 colon.
For assay [2], the system named is SNB-19 CNS.
The subject of assay [3] is K-562 leukemia.
The test system of assay [4] is ACHN renal.
The test system of assay [5] is M14 melanoma.
For assay [6], the system named is OVCAR-4 ovarian.
Assay [7] concerns NCI-H460 lung.
Assay [8] deals with SF-539 CNS.
The subject of assay [9] is HCC-2998 colon.
The test system of assay [10] is SF-268 CNS.

As usually defined, the TGI is the concentration at which net growth stops. Read a low TGI as more potent growth arrest. As usually defined, the GI50 is the concentration that inhibits growth by half.

Consider `COc1cc2c(cc1OC)CC(=O)Nc1cc(OC)c(OC)cc1CC2`, for which the TGI in assay [1], in assay [2], in assay [3], in assay [4], in assay [5] and in assay [6] was more than 100 µM each time. Moreover, the TGI in assay [7] was more than 100 µM; in [8], 97.2 µM; in [9], more than 100 µM; in assay [10] it was more than 100 µM.

Turning to `CC[C@@]1(O)C(=O)OCc2c1cc1n(c2=O)Cc2cc3cccc([N+](=O)[O-])c3nc2-1`, the GI50 is 4.63 µM in [1]; 0.877 µM in assay [2]; 3.55 µM in assay [3]; 0.322 µM in [4]; 1.05 µM in assay [5]; 4.04 µM in assay [6]. Also, the GI50 in assay [7] is 0.0671 µM; in assay [8], 0.478 µM; in [9], 4.92 µM; in [10] it was 0.794 µM. Also, the TGI in assay [1] was 25.9 µM; in assay [2], 31.4 µM; in [3], more than 100 µM; in [4], 3.01 µM; in assay [5], 12.5 µM; in assay [6], 24.3 µM. The concentration for total growth inhibition (TGI) in assay [7] is 1.51 µM; in assay [8], 2.89 µM; in assay [9], 31.8 µM; in assay [10], more than 100 µM.

`S=C(NCCNC(=S)[S][Sn]([c]1ccccc1)([c]1ccccc1)[c]1ccccc1)[S][Sn]([c]1ccccc1)([c]1ccccc1)[c]1ccccc1`: the GI50 in assay [1] is 0.0166 µM; in assay [2] it was 0.0638 µM; in assay [3] it was 0.0168 µM; in assay [4], 0.0185 µM; in assay [5], 0.0267 µM; in assay [6] it was 0.0212 µM. In addition, the GI50 in [7] is 0.0169 µM; in assay [8], 0.0682 µM; in assay [9], 0.0219 µM; in assay [10] it was 0.0416 µM. In addition, the TGI in assay [1] is 0.0411 µM; in assay [2] it was 0.139 µM; in assay [3], 0.144 µM; in assay [4], 0.0624 µM; in assay [5], 0.0976 µM; in assay [6], 0.0805 µM. The TGI in [7] was found to be 0.0575 µM; in [8], 0.203 µM; in [9] it was 0.0764 µM; in [10], 0.123 µM.

In the case of `Cc1nc(-c2nc(-c3ccc(OC(F)(F)F)cc3)no2)nn1Cc1cccc(N2CCC(S(C)(=O)=O)CC2)c1`, the GI50 is 11.1 µM in assay [1]; 8.75 µM in assay [2]; less than 0.01 µM in assay [3]; more than 26.7 µM in [4]; 5.66 µM in [5]; less than 0.0137 µM in [6]. For the same molecule, the GI50 in [7] was 5.95 µM; in [8], more than 40.4 µM; in assay [9], more than 40.6 µM; in [10], more than 40.9 µM. Besides, the TGI in assay [1] was more than 100 µM; in [2] it was 95.4 µM; in assay [3] it was more than 100 µM; in assay [4], more than 65 µM; in assay [5], more than 100 µM; in [6] it was more than 90.6 µM. Besides, the TGI in assay [7], in assay [8], in assay [9] and in [10] was more than 100 µM in each case.

`O=C([O][Hg][CH2]C1OCCOC1[CH2][Hg][O]C(=O)c1ccccc1)c1ccccc1` (stereo not given): the GI50 in [1] is 1.82 µM; in [2], 16.5 µM; in assay [3], 1.83 µM; in [4], 1.95 µM; in [5], 5.2 µM; in assay [6] it was 6.07 µM. The GI50 in [7] was 19.1 µM; in assay [8], 13.3 µM; in assay [9] it was 17.1 µM; in [10], 17.2 µM. The TGI was found to be 3.27 µM in [1]; 30.8 µM in assay [2]; 5.46 µM in [3]; 3.4 µM in [4]; 9.52 µM in assay [5]; 12.7 µM in assay [6]. Also, the TGI was found to be 36.2 µM in assay [7], 29.7 µM in assay [8], 30.8 µM in assay [9] and 30.9 µM in assay [10].

For the molecule `COc1ccc(NC(=O)CC/C(CC(=O)c2ccco2)=N/NC(N)=S)cc1`, the TGI in assay [1], in assay [2], in [3], in assay [4], in [5] and in assay [6] was more than 100 µM in each case. The TGI in assay [7], in assay [8], in assay [9] and in [10] was more than 100 µM throughout.

With `COc1ccc2c(c1)CC[C@@H]1[C@@H]2CC[C@]2(C)c3c(cc(C(=O)O)c4sccc34)C[C@@H]12`, the GI50 was 16.4 µM in assay [1]; 17.8 µM in assay [2]; 5.79 µM in [3]; 18.9 µM in assay [4]; 18.2 µM in [5]; 26.3 µM in assay [6]. In addition, the GI50 in assay [7] is 11.6 µM; in [8] it was 16.7 µM; in assay [9], 11 µM; in assay [10], 17.6 µM. In addition, the TGI in [1] came out at 70 µM; in assay [2], 48.4 µM; in assay [3] it was 20.9 µM; in [4] it was 78.4 µM; in [5] it was 37.1 µM; in assay [6] it was 79.8 µM. The TGI in [7] was 37.7 µM; in [8], 35.1 µM; in assay [9] it was 26.7 µM; in assay [10] it was 48.3 µM.

As to `COc1cc(-c2oc3c(OC)cc(OC)c(O)c3c(=O)c2OC)cc(OC)c1OC`, the TGI in assay [1], in assay [2], in [3], in assay [4], in assay [5] and in assay [6] was more than 100 µM throughout. For the same molecule, the TGI in assay [7], in assay [8], in assay [9] and in [10] was more than 100 µM throughout.
